Laboratory results reported in patent publication US5756467A, “Adipocyte differentiation inhibiting peptide and adipocyte differentiation inhibiting agent using the peptide as active component thereof” (Itoham Foods Inc., priority 1993, dated 1998).
Residues, ends and D or L forms follow the SMILES beside them.

Legend:
adipose tissue = assay: Effect of globin proteolysate on increase of adipose tissue, mice on 50% fat feed (Test 4); format: in vivo; settings: 50% fat feed + Clenbuterol 2 ppm
Excerpt: Then, mice were allowed to ingest freely 50% fat feed and then tested for weight of adipose tissue and cell number.

[1] = tested on: cells in the subcutaneous adipose tissue; assay: Effect of globin proteolysate on distribution of adipose tissue cells (Test 4); format: in vivo, mice; settings: 50% fat feed + Clenbuterol 2 ppm
Excerpt: The cell number in adipose tissues shown in Table 7 represent the values including adipocytes, preadipocytes, fibroblasts, blood vessel cells, etc. The cells in the subcutaneous adipose tissue were investigated in detail as sorted into matured adipocytes, immatured adipocytes, and interstitial cells (stroma).
It is clearly noted from Table 8 showing the results of the investigation that particularly the differentiation of fibro-blasts in the group of interstitial cells represented as stromas to preadipocytes was repressed.

Swiss mouse 3T3-L1 cells = assay: Adipocyte differentiation of preadipocytes in vitro, GPDH activity as marker enzyme (Tests 1 and 2); format: cell-based; settings: for action to inhibit the GPDH activity: treatment before and after the induction of differentiation, depending on the peptide concentration
Description: (1) Treatment before induction of differentiation
Swiss mouse 3T3-L1 cells were inoculated at a density of about 3×10^4 cells/ml to a cell culturing dish. A Dulbecco modified Eagle culture medium (DMEM) containing bovine fetal blood serum incorporated therein at a concentration of 10% was used as the culture medium. The culture was invariably carried out in an ambience of 5% CO2 and 95% of air at 37° C.
After a monolayer of cells was formed, the cell layer surface was washed with a phosphate buffer physiological salt solution (PBS). In the presence of culture media containing the CD and the fraction A respectively at concentration of 0, 2, 4, and 8 mg/ml and at concentration of 0, 20, 40, and 80 μg/ml, the cell layer was cultured. Then, the cell layer surface was washed with PBS and the cell layer was cultured for two days in the presence of a culture medium incorporating therein the differentiation inducing substance (0.25 μM of dexamethasone, […] of a-methyl-3-isobutyl xanthine, and 10 μg/ml insulin).
Subsequently, the cell layer was deprived of the culture medium containing the differentiation-inducing substance. The cell layer surface was washed likewise with PBS and the cell layer was cultured for about one week in the presence of a culture medium incorporating insulin therein at a concentration of 10 μg/ml.
The effect of the fraction A on the adipocyte differentiation was rated by determining the glycerol-3-phosphate dehydrogenase activity (GPDH) by the well-known method as a marker enzyme.
(2) Treatment after induction of differentiation
Swiss mouse 3T3-L1 cells were cultured by the same method as in (1) mentioned above and then tested for GPDH activity, providing that the culture medium containing insulin at a concentration of 10 μg/ml was added to the GD and the fraction A after the removal of the culture medium containing the differentiation inducing substance.
[Test 2] Differentiation inhibiting effect of adipocyte differentiation inhibiting peptide (chemical synthesis product) on preadipocytes (in vitro)
The effects of the chemically synthesized H-Val-Thr-Leu-OH and the H-Val-Tyr-Pro-OH obtained by the same method as in Example 5 on Swiss mouse 3T3-L1 cells in were investigated by the same method as in Example 5. […]

[2] = tested on: adipocytes in adipose tissue; assay: Effect of synthetic peptides on increase of cell number in murine adipose tissue (Test 3); format: in vivo, mice; settings: 50% fat meal + 20 ppm peptide
Description: [Test 3] Effect of adipocyte differentiation inhibiting peptide (chemical synthesis product) (in vivo)
The two adipocyte differentiation inhibiting peptides of the invention, Val-Thr-Leu and Val-Tyr-Pro, synthesized by the method shown in Example 5 were tested for effect on increase of adipocytes (in vivo). The test was performed by the same method as in Test 1 using globin proteolysate.

[3] = Peptide 0.2 mg/ml, treatment after induction of differentiation (48 hours)
[4] = Peptide 0.2 mg/ml, treatment before induction of differentiation (48 hours)
[5] = Peptide 0.4 mg/ml, treatment after induction of differentiation (48 hours)
[6] = Peptide 0.4 mg/ml, treatment before induction of differentiation (48 hours)
[7] = Peptide 0.8 mg/ml, treatment after induction of differentiation (48 hours)
[8] = Peptide 0.8 mg/ml, treatment before induction of differentiation (48 hours)

Row | SMILES | GDPH activity (Swiss mouse 3T3-L1 cells; [3]) | Ratio of Inhibition (Swiss mouse 3T3-L1 cells; [3]) | GDPH activity (Swiss mouse 3T3-L1 cells; [4]) | Ratio of Inhibition (Swiss mouse 3T3-L1 cells; [4]) | GDPH activity (Swiss mouse 3T3-L1 cells; [5]) | Ratio of Inhibition (Swiss mouse 3T3-L1 cells; [5]) | GDPH activity (Swiss mouse 3T3-L1 cells; [6]) | Ratio of Inhibition (Swiss mouse 3T3-L1 cells; [6]) | GDPH activity (Swiss mouse 3T3-L1 cells; [7]) | Ratio of Inhibition (Swiss mouse 3T3-L1 cells; [7]) | GDPH activity (Swiss mouse 3T3-L1 cells; [8]) | Ratio of Inhibition (Swiss mouse 3T3-L1 cells; [8]) | action to inhibit the GPDH activity (Swiss mouse 3T3-L1 cells) | Number of adipocytes, Epididymal adipose tissue [2] | Number of adipocytes, Retroperitoneal adipose tissue [2] | Number of adipocytes, Subcutaneous adipose tissue [2] | other results
1 | CC(C)(C)NCC(O)c1cc(Cl)c(N)c(Cl)c1 (centres unmarked) [Clenbuterol] | – | – | – | – | – | – | – | – | – | – | – | – | – | – | – | – | Number of adipocytes, Epididymal adipose tissue (adipose tissue): 79 ± 7 DNA μg/adipose tissue; Number of adipocytes, Retroperitoneal adipose tissue (adipose tissue): 18 ± 2 DNA μg/adipose tissue; Number of adipocytes, Subcutaneous adipose tissue (adipose tissue): 96 ± 8 DNA μg/adipose tissue; weight of adipose tissue, Epididymal adipose tissue (adipose tissue): 0.97 ± .11 g; weight of adipose tissue, Retroperitoneal adipose tissue (adipose tissue): 0.28 ± .04 g; weight of adipose tissue, Subcutaneous adipose tissue (adipose tissue): 1.49 ± .22 g; Adipocyte [1]: 30; Preadipoytes [1]: 30; Stroma [1]: 36
2 | CC(C)C[C@H](NC(=O)[C@@H](NC(=O)[C@@H](N)C(C)C)[C@@H](C)O)C(=O)O [Val-Thr-Leu, H-Val-Thr-Leu-OH] (H-Val-Thr-Leu-OH) | 463.2 ± 29.7 mU/mg protein | 35.5% | 102.5 ± 19.6 mU/mg protein | 82.1% | 281.1 ± 19.6 mU/mg protein | 60.8% | 8.1 ± 1.6 mU/mg protein | 98.6% | 13.8 ± 5.4 mU/mg protein | 98.1% | 6.3 ± 1.9 mU/mg protein | 98.9% | conspicuous action to inhibit the GPDH activity | 88 DNA μg/adipose tissue | 23 DNA μg/adipose tissue | 102 DNA μg/adipose tissue | –
3 | CC(C)[C@H](N)C(=O)N[C@@H](Cc1ccc(O)cc1)C(=O)N1CCC[C@H]1C(=O)O [Val-Tyr-Pro, H-Val-Tyr-Pro-OH] (H-Val-Tyr-Pro-OH) | 412.6 ± 20.3 mU/mg protein | 42.5% | 106.7 ± 28.1 mU/mg protein | 83.0% | 197.3 ± 27.5 mU/mg protein | 72.5% | 10.6 ± 2.3 mU/mg protein | 98.5% | 14.7 ± 2.7 mU/mg protein | 98.0% | 7.8 ± 1.5 mU/mg protein | 98.7% | conspicuous action to inhibit the GPDH activity | 102 DNA μg/adipose tissue | 27 DNA μg/adipose tissue | 125 DNA μg/adipose tissue | –
